Experimental data published in patent US20090012095A1, “HUMAN N-TYPE CALCIUM CHANNEL BLOCKERS” (Wyeth, priority 2002, published 2009).

Legend:
[1] = molecular target: N-type calcium channel α1B+SFVG (Homo sapiens, UniProt Q00975); test: Calcium channel modulation in HEK298 cells; assay type: cell-based
[2] = molecular target: T1, N-type calcium channel α1B+SFVG (Homo sapiens, UniProt Q00975, INS1237SFVG); test: Transient expression and recording from Xenopus oocytes, calcium channel modulation; assay type: cell-based; conditions: transient expression
T1 construct: expressed in transfected cells; host or cells: Xenopus oocytes
T1 sequence (Q00975 with tags, fused parts or gaps INS1237SFVG): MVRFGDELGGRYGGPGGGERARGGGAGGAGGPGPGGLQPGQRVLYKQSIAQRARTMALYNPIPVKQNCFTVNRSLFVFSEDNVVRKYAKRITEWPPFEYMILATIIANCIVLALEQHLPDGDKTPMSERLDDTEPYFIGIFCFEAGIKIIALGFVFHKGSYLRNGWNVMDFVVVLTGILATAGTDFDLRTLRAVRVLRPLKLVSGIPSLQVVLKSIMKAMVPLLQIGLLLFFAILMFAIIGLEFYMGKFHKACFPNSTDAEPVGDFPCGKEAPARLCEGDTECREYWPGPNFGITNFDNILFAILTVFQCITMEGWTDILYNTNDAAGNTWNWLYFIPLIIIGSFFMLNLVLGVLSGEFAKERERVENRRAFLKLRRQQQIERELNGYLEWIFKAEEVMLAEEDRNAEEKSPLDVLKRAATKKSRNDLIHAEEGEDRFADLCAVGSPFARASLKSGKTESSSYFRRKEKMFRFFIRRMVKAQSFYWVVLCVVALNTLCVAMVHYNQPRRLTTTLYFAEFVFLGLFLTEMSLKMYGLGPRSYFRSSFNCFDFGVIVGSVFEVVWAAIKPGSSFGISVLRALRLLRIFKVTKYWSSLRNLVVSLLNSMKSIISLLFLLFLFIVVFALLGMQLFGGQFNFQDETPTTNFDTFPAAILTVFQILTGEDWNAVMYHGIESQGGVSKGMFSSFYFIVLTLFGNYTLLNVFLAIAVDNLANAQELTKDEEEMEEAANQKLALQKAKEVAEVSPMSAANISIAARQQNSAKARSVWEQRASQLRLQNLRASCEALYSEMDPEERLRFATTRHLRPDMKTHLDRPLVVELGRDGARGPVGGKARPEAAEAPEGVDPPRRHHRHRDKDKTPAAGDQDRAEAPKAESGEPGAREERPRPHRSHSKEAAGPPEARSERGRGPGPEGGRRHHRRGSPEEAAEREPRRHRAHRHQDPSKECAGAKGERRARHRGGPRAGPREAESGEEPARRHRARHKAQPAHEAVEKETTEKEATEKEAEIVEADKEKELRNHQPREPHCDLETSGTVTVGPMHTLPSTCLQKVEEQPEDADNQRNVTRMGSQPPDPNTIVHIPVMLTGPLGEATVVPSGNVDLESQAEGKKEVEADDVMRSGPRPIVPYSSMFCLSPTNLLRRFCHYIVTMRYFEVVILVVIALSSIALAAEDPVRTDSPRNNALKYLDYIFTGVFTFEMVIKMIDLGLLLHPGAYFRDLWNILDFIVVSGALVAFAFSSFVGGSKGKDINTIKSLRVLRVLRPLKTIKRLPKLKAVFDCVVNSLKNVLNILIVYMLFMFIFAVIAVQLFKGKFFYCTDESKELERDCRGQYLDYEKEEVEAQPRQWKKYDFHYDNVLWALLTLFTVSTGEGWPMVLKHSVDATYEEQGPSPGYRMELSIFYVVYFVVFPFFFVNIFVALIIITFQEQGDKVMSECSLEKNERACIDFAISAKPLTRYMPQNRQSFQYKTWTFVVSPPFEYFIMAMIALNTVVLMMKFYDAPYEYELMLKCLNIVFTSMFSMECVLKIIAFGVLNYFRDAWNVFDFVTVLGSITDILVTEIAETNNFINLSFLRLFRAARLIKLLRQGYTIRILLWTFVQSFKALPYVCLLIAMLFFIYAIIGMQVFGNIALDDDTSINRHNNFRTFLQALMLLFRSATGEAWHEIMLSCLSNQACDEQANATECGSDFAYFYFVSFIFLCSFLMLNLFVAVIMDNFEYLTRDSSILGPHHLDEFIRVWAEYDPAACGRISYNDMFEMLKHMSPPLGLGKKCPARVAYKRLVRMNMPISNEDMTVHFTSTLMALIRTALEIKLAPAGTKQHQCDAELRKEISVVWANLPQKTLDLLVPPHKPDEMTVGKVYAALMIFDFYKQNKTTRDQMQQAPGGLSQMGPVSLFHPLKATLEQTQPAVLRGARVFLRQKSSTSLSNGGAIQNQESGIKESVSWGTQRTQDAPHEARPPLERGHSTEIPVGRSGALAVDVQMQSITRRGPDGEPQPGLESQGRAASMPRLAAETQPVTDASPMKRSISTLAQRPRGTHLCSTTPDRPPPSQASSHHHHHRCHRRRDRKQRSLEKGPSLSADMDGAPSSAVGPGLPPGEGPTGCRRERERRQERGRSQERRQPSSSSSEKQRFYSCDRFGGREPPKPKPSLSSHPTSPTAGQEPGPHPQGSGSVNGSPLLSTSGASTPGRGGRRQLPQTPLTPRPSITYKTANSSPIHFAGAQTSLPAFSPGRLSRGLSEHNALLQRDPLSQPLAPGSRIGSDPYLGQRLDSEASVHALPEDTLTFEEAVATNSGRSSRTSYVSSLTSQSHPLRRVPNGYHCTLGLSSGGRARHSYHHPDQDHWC
Method: Representative compounds of the formulae herein are screened for activity against […] in an assay essentially as described in J. Neurosci., Aug. 15, 2001, 21(16):5944-5951, W. Xu and D. Lipscombe, using transient expression and recording from Xenopus oocytes. The assay is performed using various calcium channels (e.g., N-type calcium channel α1B+SFVG) whereby the modulation of the calcium channel is measured for each compound.
The following IC50 data were obtained for compounds 1 and 2, following the above-referenced protocols (see Table 1).

Sequence of N-type calcium channel α1B+SFVG (Homo sapiens, UniProt Q00975) (Q00975 whole entry): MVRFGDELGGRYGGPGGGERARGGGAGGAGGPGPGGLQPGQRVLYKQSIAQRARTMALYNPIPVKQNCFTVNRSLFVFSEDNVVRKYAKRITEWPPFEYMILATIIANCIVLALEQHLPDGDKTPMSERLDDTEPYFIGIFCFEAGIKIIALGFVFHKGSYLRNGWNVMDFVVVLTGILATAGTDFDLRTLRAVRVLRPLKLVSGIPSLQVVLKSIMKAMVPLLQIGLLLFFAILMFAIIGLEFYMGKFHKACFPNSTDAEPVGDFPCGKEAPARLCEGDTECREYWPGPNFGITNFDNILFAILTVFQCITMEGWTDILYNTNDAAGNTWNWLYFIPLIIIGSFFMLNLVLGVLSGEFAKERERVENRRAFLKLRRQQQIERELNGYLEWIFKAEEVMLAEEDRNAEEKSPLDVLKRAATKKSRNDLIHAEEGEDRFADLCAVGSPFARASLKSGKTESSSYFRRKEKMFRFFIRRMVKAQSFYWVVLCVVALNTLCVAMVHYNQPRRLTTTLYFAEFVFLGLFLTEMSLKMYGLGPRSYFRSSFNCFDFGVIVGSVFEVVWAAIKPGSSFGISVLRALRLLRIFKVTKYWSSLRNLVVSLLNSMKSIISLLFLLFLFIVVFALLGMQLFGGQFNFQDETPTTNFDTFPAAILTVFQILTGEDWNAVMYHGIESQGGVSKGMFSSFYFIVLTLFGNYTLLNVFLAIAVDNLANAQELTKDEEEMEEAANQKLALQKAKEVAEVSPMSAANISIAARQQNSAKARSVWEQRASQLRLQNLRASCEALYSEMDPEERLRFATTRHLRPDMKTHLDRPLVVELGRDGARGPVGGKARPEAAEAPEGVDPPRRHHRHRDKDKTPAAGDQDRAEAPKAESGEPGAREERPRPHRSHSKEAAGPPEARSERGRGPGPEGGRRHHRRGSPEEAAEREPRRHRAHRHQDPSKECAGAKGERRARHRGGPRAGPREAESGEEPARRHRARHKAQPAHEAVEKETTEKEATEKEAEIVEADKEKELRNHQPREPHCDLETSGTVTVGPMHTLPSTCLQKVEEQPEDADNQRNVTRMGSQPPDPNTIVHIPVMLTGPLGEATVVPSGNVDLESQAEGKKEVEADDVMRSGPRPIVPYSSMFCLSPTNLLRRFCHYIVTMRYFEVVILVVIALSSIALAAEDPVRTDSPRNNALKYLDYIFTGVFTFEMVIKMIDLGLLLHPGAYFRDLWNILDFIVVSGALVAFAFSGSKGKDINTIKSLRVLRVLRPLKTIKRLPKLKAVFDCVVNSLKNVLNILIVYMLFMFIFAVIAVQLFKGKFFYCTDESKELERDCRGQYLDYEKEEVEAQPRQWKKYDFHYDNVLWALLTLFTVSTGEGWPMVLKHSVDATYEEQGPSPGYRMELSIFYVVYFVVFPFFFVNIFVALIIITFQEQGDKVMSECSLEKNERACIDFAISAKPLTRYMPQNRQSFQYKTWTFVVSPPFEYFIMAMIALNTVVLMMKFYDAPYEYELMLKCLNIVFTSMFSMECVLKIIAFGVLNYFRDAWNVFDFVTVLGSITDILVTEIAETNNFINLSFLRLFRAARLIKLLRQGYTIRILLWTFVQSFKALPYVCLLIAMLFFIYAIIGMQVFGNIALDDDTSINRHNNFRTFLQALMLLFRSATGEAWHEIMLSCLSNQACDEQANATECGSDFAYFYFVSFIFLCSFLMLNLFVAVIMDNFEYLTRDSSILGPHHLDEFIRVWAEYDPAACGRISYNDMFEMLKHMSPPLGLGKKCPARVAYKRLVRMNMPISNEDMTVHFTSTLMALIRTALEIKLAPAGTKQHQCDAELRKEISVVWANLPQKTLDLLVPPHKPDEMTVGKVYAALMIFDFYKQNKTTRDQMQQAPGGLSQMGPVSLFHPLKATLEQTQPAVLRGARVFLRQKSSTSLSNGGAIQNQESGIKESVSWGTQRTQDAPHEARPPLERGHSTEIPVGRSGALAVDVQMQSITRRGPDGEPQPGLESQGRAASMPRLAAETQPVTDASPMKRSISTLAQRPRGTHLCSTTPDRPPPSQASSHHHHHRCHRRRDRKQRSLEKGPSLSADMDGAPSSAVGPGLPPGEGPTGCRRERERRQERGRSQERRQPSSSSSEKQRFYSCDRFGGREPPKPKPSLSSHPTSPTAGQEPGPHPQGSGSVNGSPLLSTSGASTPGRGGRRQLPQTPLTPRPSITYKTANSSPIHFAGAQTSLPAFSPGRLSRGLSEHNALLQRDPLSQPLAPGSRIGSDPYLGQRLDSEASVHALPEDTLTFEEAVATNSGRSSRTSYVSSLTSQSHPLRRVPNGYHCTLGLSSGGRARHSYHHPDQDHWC

IC50 [1] [µM] | IC50 [2] [µM] | SMILES
0.19 | 7.13 | COc1cc(CN2CCN(CCCCCC(c3ccc(F)cc3)c3ccc(F)cc3)CC2)cc(OC)c1OC [Compound 1]
 | 4.16 | O=C(CCCCC(c1ccccc1)c1ccccc1)N1CCC(NCc2ccccc2)CC1 [Compound 2]
